Where a name gives a salt, the structure may show the parent alone.
Test: Excretion of radioactivity after single oral administration to male rats, target dose 1 mg free base/kg
Format: in vivo, Sprague Dawley rats
Parameters: Excretion of Radioactivity: unit not given beside the values
From the text: [^14C] N,N,-diethyl-8,8-dipropyl-2-azaspiro[4,5]decane-2-propanamine dimaleate salt, (“Compound II”) with a specific activity of 91 uCi/mg and chemical purity >99%, and non-radiolabeled dimaleate salt of N,N,-diethyl-8,8-dipropyl-2-azaspiro[4,5]decane-2-propanamine dimaleate (Compound 1) chemical purity >98%, respectively, were used in this study. The site of the radiocarbon label in Compound II is depicted by an asterisk in Formula II. The non-radiolabeled material was used for reference purposes. The radiolabeled material was stored at ca […] in the dark and the non-radiolabeled material at ca −20° C. in the dark.
Three healthy male Sprague Dawley rats (Crl:CD(SD)BR), age ca 8-9 weeks, body weights at dosing 237-255 g, were supplied by Charles River (UK) Limited. The animals were housed in holding cages suitable for this species for 8 days prior to use. SDS Rat and Mouse Maintenance Diet No. 1, (Special Diets Services, Witham Essex), and mains quality water were available ad libitum throughout. The diet and water supplied to the animals were routinely analyzed for quality and no problems were detected. Holding and study areas had automatic control of light cycle and temperature. The actual range of temperature measured during the study was 17-25° C. with relative humidity measured at 60%.
The dose was prepared for oral administration on the day of dosing. […]
For each rat, an aliquot of the dose solution was administered orally by gavage. […] For each dose, the combined weight of dose and dosing equipment were recorded prior to dosing and the discharged dosing equipment was weighed after dosing. The concentration of radioactive material in each dose solution was also determined.
Immediately following dosing, the rats were placed into all glass metabolism cages suitable for the quantitative collection of excreta and expired air. All samples were collected into individual, uniquely labeled containers.
[…] The collection containers were cooled by solid CO2 during the first 48 hours after dosing.
[…] Collection containers were cooled by solid CO2 during the first 48 hours.
At the time of each feces collection, each cage was washed with water (ca 750 mL) and the washings were retained for radioassay. During the periods 0-24 h and 24-48 hours after dosing, expired air was passed through 2 serial traps containing ethanolamine:ethoxyethaonol (3:7, v/v) in order to effect the removal of CO2. The trap solvent was sampled for radioassay at the end of each collection period.
At 168 hours post dose, each animal was killed by CO2 narcosis and cervical dislocation. Gastrointestinal tracts were removed and retained separately from the carcasses in preparation for radioassay.
All urine and feces samples were stored frozen ([…]) prior to and after analysis. Cage washes were stored at room temperature until analysis was complete and were then discarded. All carcasses and gastro-intestinal tracts were stored frozen at ca-20° C. prior to analysis.
Duplicate aliquots of urine (ca 0.3 mL) and cage washings (ca 1 mL) were dispensed, diluted to 1 mL with distilled water (if considered necessary) and mixed with Quickzint 1 scintillation fluid (10 mL; Zinsser Analytic Maidenhead, UK).
Feces were homogenised in 1 to 2 volumes of water with the sample and homogenate weight recorded. Duplicate aliquots (ca 0.3) were taken from each sample and dispensed onto combustopads contained in combustocones (Can berra Packard Limited, Pangbourne, UK). When dry, these samples were combusted using a Packard Tri-Carb 306 Automatic Sample Oxidiser. The resultant ^14CO2 generated was collected by absorption in Carbo-Sorb® (8 mL; Can berra Packard Limited) to which Permafluor®E^+ scintillation fluid (10 mL; Can berra Packard Limited) was added.
For each rat, the carcass and gastro-intestinal tract with contents were solubilised in Soluene 350 (Canberra Packard). When dissolved, portions of the digest (ca 0.1 mL) were taken for liquid scintillation spectrometry. […]

SMILES: CCCC1(CCC)CCC2(CCN(CCCN(CC)CC)C2)CC1 [Compound II, [^14C] N,N,-diethyl-8,8-dipropyl-2-azaspiro[4,5]decane-2-propanamine dimaleate salt]
- Dose recovered in expired air (0-48 hours collection): Less than 0.2%
- Excretion of Radioactivity (Cage Wash 0-24 hours, #1 male): 0.1
- Excretion of Radioactivity (Cage Wash 0-24 hours, #2 male): 0.1
- Excretion of Radioactivity (Cage Wash 0-24 hours, #3 male): *<0.1
- Excretion of Radioactivity (Cage Wash 0-24 hours, Mean): ^+0.1
- Excretion of Radioactivity (Cage Wash 0-168 hours, #1 male): 0.7
- Excretion of Radioactivity (Cage Wash 0-168 hours, #2 male): 1.0
- Excretion of Radioactivity (Cage Wash 0-168 hours, #3 male): 1.3
- Excretion of Radioactivity (Cage Wash 0-168 hours, Mean): 1.0
- Excretion of Radioactivity (Cage Wash 24-48 hours, #1 male): 0.1
- Excretion of Radioactivity (Cage Wash 24-48 hours, #2 male): <0.1
- Excretion of Radioactivity (Cage Wash 24-48 hours, #3 male): 0.1
- Excretion of Radioactivity (Cage Wash 24-48 hours, Mean): 0.1
- Excretion of Radioactivity (Cage Wash 48-72 hours, #1 male): <0.1
- Excretion of Radioactivity (Cage Wash 48-72 hours, #2 male): 0.2
- Excretion of Radioactivity (Cage Wash 48-72 hours, #3 male): 0.2
- Excretion of Radioactivity (Cage Wash 48-72 hours, Mean): 0.1
- Excretion of Radioactivity (Cage Wash 72-96 hours, #1 male): 0.1
- Excretion of Radioactivity (Cage Wash 72-96 hours, #2 male): 0.2
- Excretion of Radioactivity (Cage Wash 72-96 hours, #3 male): 0.3
- Excretion of Radioactivity (Cage Wash 72-96 hours, Mean): 0.2
- Excretion of Radioactivity (Cage Wash 96-120 hours, #1 male): 0.1
- Excretion of Radioactivity (Cage Wash 96-120 hours, #2 male): 0.2
- Excretion of Radioactivity (Cage Wash 96-120 hours, #3 male): 0.2
- Excretion of Radioactivity (Cage Wash 96-120 hours, Mean): 0.2
- Excretion of Radioactivity (Cage Wash 120-144 hours, #1 male): 0.1
- Excretion of Radioactivity (Cage Wash 120-144 hours, #2 male): 0.1
- Excretion of Radioactivity (Cage Wash 120-144 hours, #3 male): 0.3
- Excretion of Radioactivity (Cage Wash 120-144 hours, Mean): 0.2
- Excretion of Radioactivity (Cage Wash 144-168 hours, #1 male): 0.2
- Excretion of Radioactivity (Cage Wash 144-168 hours, #2 male): 0.2
- Excretion of Radioactivity (Cage Wash 144-168 hours, #3 male): 0.2
- Excretion of Radioactivity (Cage Wash 144-168 hours, Mean): 0.2
- Recovery of Radioactivity (Cage Washings, 168 hour collection period, #3 male): *1.3 % administered dose
- Recovery of Radioactivity (Cage Washings, 168 hour collection period, Mean): ^+1.0 % administered dose
- Recovery of Radioactivity (Carcass, at 168 hours, #1 male): 11.3 % administered dose
- Recovery of Radioactivity (Carcass, at 168 hours, #2 male): 14.1 % administered dose
- Recovery of Radioactivity (Carcass, at 168 hours, #3 male): 14.9 % administered dose
- Recovery of Radioactivity (Carcass, at 168 hours, Mean): 13.5 % administered dose
- Recovery of Radioactivity (Expired air 1, #1 male): *<0.1 % administered dose
- Recovery of Radioactivity (Expired air 1, #2 male): *<0.1 % administered dose
- Recovery of Radioactivity (Expired air 1, #3 male): *<0.1 % administered dose
- Recovery of Radioactivity (Expired air 1, Mean): ^+<0.1 % administered dose
- Recovery of Radioactivity (Expired air 2, #1 male): *<0.1 % administered dose
- Recovery of Radioactivity (Expired air 2, #2 male): *<0.1 % administered dose
- Recovery of Radioactivity (Expired air 2, #3 male): *<0.1 % administered dose
- Recovery of Radioactivity (Expired air 2, Mean): ^+<0.1 % administered dose
- Excretion of Radioactivity (Feces 0-24 hours, #1 male): 18.2
- Excretion of Radioactivity (Feces 0-24 hours, #2 male): 14.7
- Excretion of Radioactivity (Feces 0-24 hours, #3 male): 17.7
- Excretion of Radioactivity (Feces 0-24 hours, Mean): 16.9
- Excretion of Radioactivity (Feces 0-168 hours, #1 male): 64.0
- Excretion of Radioactivity (Feces 0-168 hours, #2 male): 65.7
- Excretion of Radioactivity (Feces 0-168 hours, #3 male): 66.7
- Excretion of Radioactivity (Feces 0-168 hours, Mean): 65.5
- Excretion of Radioactivity (Feces 24-48 hours, #1 male): 16.3
- Excretion of Radioactivity (Feces 24-48 hours, #2 male): 17.2
- Excretion of Radioactivity (Feces 24-48 hours, #3 male): 14.5
- Excretion of Radioactivity (Feces 24-48 hours, Mean): 16.0
- Excretion of Radioactivity (Feces 48-72 hours, #1 male): 10.0
- Excretion of Radioactivity (Feces 48-72 hours, #2 male): 15.2
- Excretion of Radioactivity (Feces 48-72 hours, #3 male): 12.7
- Excretion of Radioactivity (Feces 48-72 hours, Mean): 12.6
- Excretion of Radioactivity (Feces 72-96 hours, #1 male): 7.5
- Excretion of Radioactivity (Feces 72-96 hours, #2 male): 7.8
- Excretion of Radioactivity (Feces 72-96 hours, #3 male): 8.0
- Excretion of Radioactivity (Feces 72-96 hours, Mean): 7.8
- Excretion of Radioactivity (Feces 96-120 hours, #1 male): 5.5
- Excretion of Radioactivity (Feces 96-120 hours, #2 male): 4.1
- Excretion of Radioactivity (Feces 96-120 hours, #3 male): 6.4
- Excretion of Radioactivity (Feces 96-120 hours, Mean): 5.3
- Excretion of Radioactivity (Feces 120-144 hours, #1 male): 3.5
- Excretion of Radioactivity (Feces 120-144 hours, #2 male): 3.5
- Excretion of Radioactivity (Feces 120-144 hours, #3 male): 4.3
- Excretion of Radioactivity (Feces 120-144 hours, Mean): 3.8
- Excretion of Radioactivity (Feces 144-168 hours, #1 male): 3.0
- Excretion of Radioactivity (Feces 144-168 hours, #2 male): 3.2
- Excretion of Radioactivity (Feces 144-168 hours, #3 male): 3.1
- Excretion of Radioactivity (Feces 144-168 hours, Mean): 3.1
- Recovery of Radioactivity (GI Tract, at 168 hours, #1 male): 13.8 % administered dose
- Recovery of Radioactivity (GI Tract, at 168 hours, #2 male): 13.3 % administered dose
- Recovery of Radioactivity (GI Tract, at 168 hours, #3 male): 10.5 % administered dose
- Recovery of Radioactivity (GI Tract, at 168 hours, Mean): 12.5 % administered dose
- Recovery of Radioactivity (Total, 168 hour collection period, #1 male): 96.7 % administered dose
- Recovery of Radioactivity (Total, 168 hour collection period, #2 male): 103.0 % administered dose
- Recovery of Radioactivity (Total, 168 hour collection period, #3 male): 103.2 % administered dose
- Recovery of Radioactivity (Total, 168 hour collection period, Mean): 101.0 % administered dose
- Excretion of Radioactivity (Urine 0-6 hours, #1 male): 0.1
- Excretion of Radioactivity (Urine 0-168 hours, #1 male): 6.9
- Excretion of Radioactivity (Urine 0-168 hours, #2 male): 8.9
- Excretion of Radioactivity (Urine 0-168 hours, #3 male): 9.8
- Excretion of Radioactivity (Urine 0-168 hours, Mean): 8.5
- Excretion of Radioactivity (Urine 6-24 hours, #1 male): 0.4
- Excretion of Radioactivity (Urine 6-24 hours, #2 male): 0.5
- Excretion of Radioactivity (Urine 6-24 hours, #3 male): 0.5
- Excretion of Radioactivity (Urine 6-24 hours, Mean): 0.5
- Excretion of Radioactivity (Urine 24-48 hours, #1 male): 1.0
- Excretion of Radioactivity (Urine 24-48 hours, #2 male): 1.4
- Excretion of Radioactivity (Urine 24-48 hours, #3 male): 1.4
- Excretion of Radioactivity (Urine 24-48 hours, Mean): 1.3
- Excretion of Radioactivity (Urine 48-72 hours, #1 male): 1.2
- Excretion of Radioactivity (Urine 48-72 hours, #2 male): 1.5
- Excretion of Radioactivity (Urine 48-72 hours, #3 male): 1.7
- Excretion of Radioactivity (Urine 48-72 hours, Mean): 1.5
- Excretion of Radioactivity (Urine 72-96 hours, #1 male): 1.3
- Excretion of Radioactivity (Urine 72-96 hours, #2 male): 1.6
- Excretion of Radioactivity (Urine 72-96 hours, #3 male): 2.0
- Excretion of Radioactivity (Urine 72-96 hours, Mean): 1.6
- Excretion of Radioactivity (Urine 96-120 hours, #1 male): 1.2
- Excretion of Radioactivity (Urine 96-120 hours, #2 male): 1.5
- Excretion of Radioactivity (Urine 96-120 hours, #3 male): 1.6
- Excretion of Radioactivity (Urine 96-120 hours, Mean): 1.4
- Excretion of Radioactivity (Urine 120-144 hours, #1 male): 0.9
- Excretion of Radioactivity (Urine 120-144 hours, #2 male): 1.3
- Excretion of Radioactivity (Urine 120-144 hours, #3 male): 1.3
- Excretion of Radioactivity (Urine 120-144 hours, Mean): 1.2
- Excretion of Radioactivity (Urine 144-162 hours, #1 male): 0.8
- Excretion of Radioactivity (Urine 144-162 hours, #2 male): 1.0
- Excretion of Radioactivity (Urine 144-162 hours, #3 male): 1.2
- Excretion of Radioactivity (Urine 144-162 hours, Mean): 1.0
- Dose remaining in the carcass (at 168 hours): ~13.5%
- Dose remaining in the gastro-intestinal tract (at 168 hours): ~12.5%
- Radioactive dose recovered in feces, mean (by 168 hours after dosing): 65.5%
- Radioactive dose recovered in urine, mean (by 168 hours after dosing): 8.5%
- Dose recovered in excreta and cage washings, mean (full 168 hour collection period): 75.0%
- Recovery of administered radioactive dose (total, range over animals, 168 hours): 96.7-103.2%
- Dose recovered in the excreta (up to 120 hours after dosing): ~66%
